Laboratory results from patent US20240199598A1 (MITOIMMUNE THERAPEUTICS INC., priority 2021, published 2024).
“Also recorded” adds a separate entry of the source. Like-named read-outs stand apart in the source and are kept apart here.

What was measured:
[1] = Simulated gastrointestinal fluid solubility test (SGF, FaSSIF, FeSSIF); assay type: physicochemical; settings: fed state simulated intestinal fluid (FeSSIF), 37 °C, pH 4.98, fessif, thermodynamic from solid
Protocol: As simulated gastrointestinal fluid media (Biorelevant dissolution media) used for environment assessment in the simulated gastrointestinal tract, simulated gastric fluid (SGF), fasted state simulated intestinal fluid (FaSSIF), and fed state simulated intestinal fluid (FeSSIF) were used, and a detailed description of the test is as follows.
All vials were placed on a hot plate stirrer and maintained while stirring at 37° C. and 700 rpm. […] After mixing at 37° C. for 24 hours, 300 μL of the suspension was separated from each vial and analyzed.
The analysis sample was centrifuged at 14000 rpm for 5 minutes, and then the supernatant was diluted 10-fold with ACN:H2O (7/3, v/v) and analyzed by ultra-performance liquid chromatography (UPLC).

[2] = Physicochemical stability test of free form and 5 salts (60° C., 40° C./75% humidity, light); settings: for Final purity: HPLC
Protocol: In the case of a light stability test, the vial was stored in a light stability test chamber while being not closed with a lid, and exposed to a total illuminance of 1.2 million lux-hr. A vial light-shielded with aluminum foil was used as an experimental control (Dark control). For stability assessment, state assessment by visual observation, purity assessment using HPLC, and crystalline form assessment using XRPD were conducted, and results thereof are shown in Table 7. […] In FIGS. 19 to 30, “Light” represents light irradiation condition results.

[3] = Solubility test of sulfate (Crystalline form III) in various solvents; assay type: physicochemical; settings: thermodynamic from solid
Protocol: First, solvent screening was performed for a study on various crystalline forms.

[4] = Oral administration pharmacokinetic test using mice; settings: mice, oral

For O=S1(=O)CCN(Cc2cc(NC3CCOCC3)c3[nH]c(-c4ccccc4)cc3c2)CC1 [Sulfate], the solubility at 24 h ([1]; FeSSIF (pH = 4.98), 37° C., after 24 hours, read-out: Solubility) was 0.13 mg/mL, the solubility at 24 h ([1]; summary Table 9, read-out: Stimulated gastrointestinal fluid solubility, FeSSIF) was 0.13 mg/mL and the Assay ([2]; 1.2 million lux-hr) was 104.98%. The Purity change ([2]; 1.2 million lux-hr) was “+0.14%”, the XRPD patterns ([2]; 1.2 million lux-hr) was “Pattern 2-I” and the Final purity ([2]; 1.2 million lux-hr) was 99.87%. The Appearance ([2]; 40° C./75% RH, 1 w) was “White powder”, the Assay ([2]; 40° C./75% RH, 1 w) was 109.86% and the Purity change ([2]; 40° C./75% RH, 1 w) was −0.43%. The XRPD patterns ([2]; 40° C./75% RH, 1 w) was “Pattern 2-I”, the Final purity ([2]; 40° C./75% RH, 1 w) was 99.30% and the “Chemical stability (purity change %/1 w), 40° C./75% RH” value ([2]; 40° C./75% RH, 1 w, summary Table 9) was −0.43%. The Appearance ([2]; 60° C., 1 w) was “White powder”, the Assay ([2]; 60° C., 1 w) was 110.59% and the Purity change ([2]; 60° C., 1 w) was “+0.1%”. For the same compound, the XRPD patterns ([2]; 60° C., 1 w) was “Pattern 2-I”, the Final purity ([2]; 60° C., 1 w) was 99.83% and the “Chemical stability (purity change %/1 w), 60° C.” value ([2]; 60° C., 1 w, summary Table 9) was 0.1%. The “Sensitivity to heat, humidity and light conditions (in words)” value ([2]; 60° C., 40° C./75% humidity, 1.2 million lux-hr, listed as sulfate of the compound of Chemical Formula 1) was “sensitive under a humidity condition; also recorded: comparable results to the free form of the compound of Chemical Formula 1 under high-temperature and light stability conditions, except for a humidity condition”, the Assay ([2]; Dark control) was 105.93% and the Purity change ([2]; Dark control) was “+0.02%”. The XRPD patterns ([2]; Dark control) was “Pattern 2-I”, the Final purity ([2]; Dark control) was 99.75% and the “Chemical stability (purity change %/1 w), Light stability” value ([2]; light stability, summary Table 9) was 0.14%. The solubility ([3]; aqueous with cosolvent or surfactant or cyclodextrin, Acetic acid-H2O (1:1), 25° C., read-out: Solubility) was 196 to 295 mg/mL, the solubility ([3]; aqueous with cosolvent or surfactant or cyclodextrin, Acetic acid-H2O (1:1), 50° C., read-out: Solubility) was 300 to 599 mg/mL and the solubility ([3]; aqueous with cosolvent or surfactant or cyclodextrin, Acetone-H2O (1:2), 25° C., read-out: Solubility) was 9 to 19 mg/mL. The solubility ([3]; aqueous with cosolvent or surfactant or cyclodextrin, Acetone-H2O (1:2), 50° C., read-out: Solubility) was 37 to 75 mg/mL, the solubility ([3]; aqueous with cosolvent or surfactant or cyclodextrin, MeOH/H2O = 1:1(v/v), 25° C., read-out: Solubility) was 2 to 3 mg/mL and the solubility ([3]; aqueous with cosolvent or surfactant or cyclodextrin, MeOH/H2O = 1:1(v/v), 50° C., read-out: Solubility) was 9 to 19 mg/mL. The solubility ([3]; aqueous with cosolvent or surfactant or cyclodextrin, in MeOH/H2O (1:1 (v:v)) and acetone/water (1:1 (v/v)), read-out: Solubility (good)) was 5 to 40 mg/mL, the solubility ([3]; organic solvent or mixture, 1-Butanol, 25° C., read-out: Solubility) was less than 2 mg/mL and the solubility ([3]; organic solvent or mixture, 1-Butanol, 50° C., read-out: Solubility) was less than 2 mg/mL. For the same compound, the solubility ([3]; organic solvent or mixture, 2-MeTHF, 25° C., read-out: Solubility) was less than 2 mg/mL, the solubility ([3]; organic solvent or mixture, 2-MeTHF, 50° C., read-out: Solubility) was less than 2 mg/mL and the solubility ([3]; organic solvent or mixture, ACN, 25° C., read-out: Solubility) was less than 2 mg/mL. For the same compound, the solubility ([3]; organic solvent or mixture, ACN, 50° C., read-out: Solubility) was less than 2 mg/mL, the solubility ([3]; organic solvent or mixture, Acetone, 25° C., read-out: Solubility) was less than 2 mg/mL and the solubility ([3]; organic solvent or mixture, Acetone, 50° C., read-out: Solubility) was less than 2 mg/mL. For the same compound, the solubility ([3]; organic solvent or mixture, CHCl3, 25° C., read-out: Solubility) was less than 2 mg/mL, the solubility ([3]; organic solvent or mixture, CHCl3, 50° C., read-out: Solubility) was less than 2 mg/mL and the solubility ([3]; organic solvent or mixture, DMF, 25° C., read-out: Solubility) was 202 to 302 mg/mL. It also gave a solubility ([3]; organic solvent or mixture, DMF, 50° C., read-out: Solubility) of 304 to 608 mg/mL, a solubility ([3]; organic solvent or mixture, DMSO, 25° C., read-out: Solubility) of 158 to 210 mg/mL and a solubility ([3]; organic solvent or mixture, DMSO, 50° C., read-out: Solubility) of 301 to 602 mg/mL. The solubility ([3]; organic solvent or mixture, EtOAc, 25° C., read-out: Solubility) was less than 2 mg/mL, the solubility ([3]; organic solvent or mixture, EtOAc, 50° C., read-out: Solubility) was less than 2 mg/mL and the solubility ([3]; organic solvent or mixture, EtOH, 25° C., read-out: Solubility) was less than 2 mg/mL. For the same compound, the solubility ([3]; organic solvent or mixture, EtOH, 50° C., read-out: Solubility) was less than 2 mg/mL, the solubility ([3]; organic solvent or mixture, Heptane, 25° C., read-out: Solubility) was less than 2 mg/mL and the solubility ([3]; organic solvent or mixture, Heptane, 50° C., read-out: Solubility) was less than 2 mg/mL. The solubility ([3]; organic solvent or mixture, IPA, 25° C., read-out: Solubility) was less than 2 mg/mL, the solubility ([3]; organic solvent or mixture, IPA, 50° C., read-out: Solubility) was less than 2 mg/mL and the solubility ([3]; organic solvent or mixture, MEK, 25° C., read-out: Solubility) was less than 2 mg/mL. It also gave a solubility ([3]; organic solvent or mixture, MEK, 50° C., read-out: Solubility) of less than 2 mg/mL, a solubility ([3]; organic solvent or mixture, MIBK, 25° C., read-out: Solubility) of less than 2 mg/mL and a solubility ([3]; organic solvent or mixture, MIBK, 50° C., read-out: Solubility) of less than 2 mg/mL. The solubility ([3]; organic solvent or mixture, MTBE, 25° C., read-out: Solubility) was less than 2 mg/mL, the solubility ([3]; organic solvent or mixture, MTBE, 50° C., read-out: Solubility) was less than 2 mg/mL and the solubility ([3]; organic solvent or mixture, MeOH, 25° C., read-out: Solubility) was less than 2 mg/mL. It also gave a solubility ([3]; organic solvent or mixture, MeOH, 50° C., read-out: Solubility) of 2 to 3 mg/mL, a solubility ([3]; organic solvent or mixture, NMP, 25° C., read-out: Solubility) of 156 to 208 mg/mL and a solubility ([3]; organic solvent or mixture, NMP, 50° C., read-out: Solubility) of 202 to 304 mg/mL. For the same compound, the solubility ([3]; organic solvent or mixture, THF, 25° C., read-out: Solubility) was less than 2 mg/mL, the solubility ([3]; organic solvent or mixture, THF, 50° C., read-out: Solubility) was less than 2 mg/mL and the solubility ([3]; organic solvent or mixture, Toluene, 25° C., read-out: Solubility) was less than 2 mg/mL. It also gave a solubility ([3]; organic solvent or mixture, Toluene, 50° C., read-out: Solubility) of less than 2 mg/mL, a solubility ([3]; organic solvent or mixture, iPrOAc, 25° C., read-out: Solubility) of less than 2 mg/mL and a solubility ([3]; organic solvent or mixture, iPrOAc, 50° C., read-out: Solubility) of less than 2 mg/mL. The solubility ([3]; organic solvent or mixture, in DMF, NMP, DMSO and acetic acid/water (1:1 (v:v)), read-out: Solubility (excellent)) was no less than 150 mg/mL, the solubility ([3]; organic solvent or mixture, in methanol, ethanol, isopropanol, 1-butanol, acetonitrile, acetone, MEK, MIBK, ethyl acetate, isopropyl acetate, MTBE, tetrahydrofuran, chloroform, toluene, heptane and water, read-out: Solubility (low)) was no more than 5 mg/mL and the solubility ([3]; Water, 25° C., read-out: Solubility) was less than 2 mg/mL. The solubility ([3]; Water, 50° C., read-out: Solubility) was less than 2 mg/mL, the Cmax ([4]; 10 mg/kg) was 3.1548 µg/mL and the t½ ([4]; 10 mg/kg) was 4.0 h. For the same compound, the AUClast ([4]; 10 mg/kg, listed as sulfate of the compound of Chemical Formula 1, 10 mg/kg) was 11.49935 µg·h/mL and the “Pharmacokinetic test, t½” value ([4]; summary Table 9) was 4 h.
